According to ChEMBL document CHEMBL1158673, “Bioactive kaurane diterpenoids from Annona glabra” (J Nat Prod, 1998):
Values after ≈ are worked out from the molar mass of the structure shown. Active and inactive are the calls of the source. No cut-off for these calls is given here.

Tests used:
[1] = tested on: H9; test: Cytotoxicity against human H9 cells; type: cell-based
[2] = Therapeutic index, ratio of IC50 for human H9 cells to EC50 for HIV; type: cell-based; settings: for therapeutic index: H9; for Activity: human, h9
[3] = tested on: Human immunodeficiency virus; test: Antiviral activity against HIV infected in human H9 cells assessed as viral replication; type: functional, organism-based; settings: for EC50: Human immunodeficiency virus 1, H9
[4] = tested on: Human immunodeficiency virus; test: Inhibition of HIV reverse transcriptase at 33 ug/mL by scintillation counting

Row | SMILES | EC50 [3] | inhibition [4] | IC50 [1] | therapeutic index [2] | Activity [2] | Activity [3]
1 | C[C@@]12CCC[C@@](C)(C(=O)O)[C@H]1CC[C@@]13C[C@H](CC[C@H]12)[C@@](O)(CO)C3 |  | 46% |  |  |  | 
2 | C=C1C[C@@]23CC[C@@H]4[C@](C)(CO)CCC[C@@]4(C)[C@@H]2CC[C@H]1C3 |  | 7% |  |  |  | 
3 | COC(=O)[C@H]1C[C@@]23CC[C@H]4[C@@](C)(CCC[C@@]4(C)C=O)[C@@H]2CC[C@H]1C3 | 5 µg/mL (≈ 15 µM) |  | 20 µg/mL (≈ 60.2 µM) | 4 |  | 
4 | CC(=O)OC[C@]1(C)CCC[C@]2(C)[C@@H]1CC[C@@]13C[C@H](CC[C@H]12)[C@@H](C(=O)O)C3 [ANNOGLABASIN B] |  |  | 40 µg/mL (≈ 110 µM) |  | Not Active | inactive
5 | C[C@@]12CCC[C@@](C)(C=O)[C@H]1CC[C@@]13C[C@H](CC[C@H]12)[C@@H](C(=O)O)C3 |  | 14% |  |  |  | 
6 | CC1(C)CCC[C@]2(C)[C@@H]1CC[C@@]13C[C@H](CC[C@H]12)[C@@H](C(=O)O)C3 |  |  | 40 µg/mL (≈ 131 µM) |  | Not Active | inactive
7 | CC1(C)CCC[C@]2(C)[C@@H]1CC[C@@]13C[C@H](CC[C@H]12)[C@H](C(=O)O)C3 | 24 µg/mL (≈ 78.8 µM) |  | 32 µg/mL (≈ 105 µM) | 1.3 |  | 

Second part, led by results:

Row | EC50 [3] | inhibition [4] | SMILES | IC50 [1] | therapeutic index [2] | Activity [2] | Activity [3]
8 | 10 µg/mL (≈ 25.6 µM) |  | COC(=O)[C@]1(OC(C)=O)C[C@@]23CC[C@H]4[C@@](C)(CCC[C@@]4(C)C=O)[C@@H]2CC[C@H]1C3 [ANNOGLABASIN A] | 15 µg/mL (≈ 38.4 µM) | 1.5 |  | 
9 | 0.01 µg/mL (≈ 0.0374 µM) |  | Cc1cn([C@H]2C[C@H](N=[N+]=[N-])[C@@H](CO)O2)c(=O)[nH]c1=O [ZIDOVUDINE] |  | 50000 |  | 
10 | 85 µg/mL (≈ 225 µM) |  | CC(=O)OC[C@]1(O)C[C@@]23CC[C@H]4[C@@](C)(CCC[C@@]4(C)C(=O)O)[C@@H]2CC[C@H]1C3 | 65 µg/mL (≈ 172 µM) | 0.8 |  | 
11 |  | 1% | C=C1C[C@@]23CC[C@H]4[C@@](C)(CCC[C@@]4(C)C(=O)O)[C@@H]2CC[C@@H]1C3 |  |  |  | 
